Paper PMC4608554 (Bioorganic & medicinal chemistry, 2015)
Values joined by “and” are separate entries in the source; they are usually repeats but may differ in a detail not shown here. Equal values may be shown once. “Also recorded” adds a separate entry of the source. Read-outs that look alike come from different tables or passages of the source. One block for each compound: values may come before it.

How the values were obtained:
[1] = test system: non-iron-overloaded, bile duct-cannulated rats; details: cited from earlier work
[2] = 2:1 complex with Fe(III); cited from earlier work
rats [3] = details: cited from earlier work
[4] = test system: iron-overloaded Cebus apella monkeys; details: po, cited from earlier work
patients = details: cited from earlier work
[5] = rat liver, sc 300 µmol/kg, cited from earlier work; for fraction of parent polyether cleaved to 2 (from 5) or 3 (from 6): 2 h
[6] = even when administered b.i.d.; cited from earlier work
rats [7] = details: rat, cited from earlier work
[8] = Tissue distribution/metabolism of chelators in rats; assay type: in vivo, rat (male Sprague-Dawley); details: for concentration in kidney: rat kidney; for presence in heart: later time points (2-8 h) after 11 sc 300 µmol/kg
[9] = test system: non-iron-overloaded, bile duct-cannulated rats; test: Chelator-induced iron clearance; assay type: in vivo; details: po, 300 µmol/kg
male Sprague-Dawley rats = test: 10-day toxicity trial of 11 in rats; assay type: in vivo, rat; details: 384 µmol/kg/day
[10] = test system: iron-overloaded Cebus apella monkeys; test: Chelator-induced iron clearance; assay type: in vivo; details: 75 µmol/kg, same animals po and sc
[11] = bile duct-cannulated rats, po, 150 µmol/kg
[12] = rat liver, 8 h after 8 sc 300 µmol/kg
[13] = rat plasma, 8 h after 8 sc 300 µmol/kg
[14] = rat heart, 0.5 h after 11 sc 300 µmol/kg
[15] = rat pancreas, 0.5 h after 11 sc 300 µmol/kg
[16] = rat plasma, 4 h after 11 sc 300 µmol/kg
[17] = rat liver, 0.5 h after 11 sc 300 µmol/kg
[18] = rat liver, 1 h after 11 sc 300 µmol/kg
[19] = rat heart, 1 h after 11 sc 300 µmol/kg
[20] = rat liver, 8 h after 11 sc 300 µmol/kg
[21] = rat pancreas, 1 h after 11 sc 300 µmol/kg

Compound: CCCCOc1ccc(C2=N[C@@H](C(=O)O)CS2)c(O)c1 [(S)-2-(4-butoxy-2-hydroxyphenyl)-4,5-dihydro-4-thiazolecarboxylic acid]
time to deaths ([1]; 4'-butoxy analogue of 2): ≤ 24 h

Compound: C[C@]1(C(=O)O)CSC(c2ncccc2O)=N1 [compound 1, (S)-4,5-dihydro-2-(3-hydroxy-2-pyridinyl)-4-methyl-4-thiazolecarboxylic acid]
Rodent ICE (%) ([1]; rat, po, 150 µmol/kg): 5.5 ± 3.2%
cumulative formation constant [2]: 4 × 10^29
renal toxicity in rats (rats [3]): unacceptable renal toxicity
Primate ICE (%) ([4]; 150 µmol/kg, historical, ref 41 (1), ref 53 (2)): 16.1 ± 8.5%

Compound: C[C@]1(C(=O)O)CSC(c2ccc(O)cc2O)=N1 [compound 2, (S)-2-(2,4-dihydroxyphenyl)-4,5-dihydro-4-methyl-4-thiazolecarboxylic acid]
tolerability in patients (patients; 5, 10, or 15 mg/kg/day once daily (s.i.d) for up to 12 weeks): well tolerated
renal toxicity in patients (increases in BUN and SCr) (patients; b.i.d. 12.5 mg/kg (25 mg/kg/d), three patients after 4-5 weeks): unacceptable renal toxicity

Compound: COc1ccc(C2=N[C@@](C)(C(=O)O)CS2)c(O)c1 [compound 4, (S)-4,5-dihydro-2-(2-hydroxy-4-methoxyphenyl)-4-methyl-4-thiazolecarboxylic acid]
fraction of parent demethylated to 2 ([5]; 2 h post drug): about 30%

Compound: COCCOCCOCCOc1ccc(C2=N[C@@](C)(C(=O)O)CS2)c(O)c1 [compound 5, (S)-4,5-dihydro-2-[2-hydroxy-4-(3,6,9-trioxadecyloxy)phenyl]-4-methyl-4-thiazolecarboxylic acid]
fraction of parent polyether cleaved to 2 (from 5) or 3 (from 6) [5]: 2%
renal toxicity [6]: no renal toxicity

Compound: COCCOCCOCCOc1cccc(C2=N[C@@](C)(C(=O)O)CS2)c1O [compound 6, (S)-4,5-dihydro-2-[2-hydroxy-3-(3,6,9-trioxadecyloxy)phenyl]-4-methyl-4-thiazolecarboxylic acid]
ICE [1, 11]: 18.7 ± 2.9%
iron decorporated [1, 11]: 0.782 ± 0.121 mg/kg
quantity of iron excreted ([1]; bile duct-cannulated rats, po, 300 µmol/kg): 0.887 ± 0.367 mg/kg
fraction of parent polyether cleaved to 2 (from 5) or 3 (from 6) [5]: 2.6%
renal toxicity [6]: no renal toxicity

cleavage of the terminal methyl of 7 to alcohol 8 ([8]; rat tissues, 7 sc 300 µmol/kg): did occur
cleavage of 7 at the 4'-(HO) to 2 ([8]; rats, 7 sc 300 µmol/kg): does not sustain metabolic cleavage
Compound: COCCOCCOc1ccc(C2=N[C@@](C)(C(=O)O)CS2)c(O)c1 [compound 7, (S)-4,5-dihydro-2-[2-hydroxy-4-(3,6-dioxaheptyloxy)phenyl]-4-methyl-4-thiazolecarboxylic acid]
histopathology (rats [7]; extensive tissues): no drug-related abnormalities were identified
urinary Kim-1 excretion (rats [7]; up to 28 d): did not elicit any increases
Primate ICE (%) ([4]; 75 µmol/kg, as monosodium salt): 28.7 ± 12.4%
Primate ICE (%) ([4]; 75 µmol/kg, in capsules): ~ 26% and 26.3 ± 9.9%

share of the drug (parent + metabolite) ([8]; rat liver, 0.5 h after 8 sc 300 µmol/kg): 53%
presence in liver [8, 12]: very little
share of total drug concentration ([8]; rat plasma, 0.5 h after 7 sc 300 µmol/kg): 5%
Compound: C[C@]1(C(=O)O)CSC(c2ccc(OCCOCCO)cc2O)=N1 [compound 8, (S)-4,5-dihydro-2-[2-hydroxy-4-(5-hydroxy-3-oxapentyloxy)phenyl]-4-methyl-4-thiazolecarboxylic acid]
presence in plasma [8, 13]: Neither the parent 8 nor the metabolite 9 was found

share of the drug (parent + metabolite) ([8]; rat liver, 1 h after 8 sc 300 µmol/kg): 59%
presence in liver [8, 12]: no metabolite 9 remains
share of drug converted to / in the form of metabolite ([8]; rat plasma, 0.5 h after 8 sc 300 µmol/kg): ~60%
share of drug in the form of the metabolite ([8]; rat plasma, 2 h after 8 sc 300 µmol/kg): 88%
presence of carboxylic acid 9 in tissues after 7 ([8]; rat tissues, 7 sc 300 µmol/kg): not detected
Compound: C[C@]1(C(=O)O)CSC(c2ccc(OCCOCC(=O)O)cc2O)=N1 [compound 9, (S)-4,5-dihydro-2-[2-hydroxy-4-(4-carboxy-3-oxabutyloxy)phenyl]-4-methyl-4-thiazolecarboxylic acid]
presence in plasma [8, 13]: Neither the parent 8 nor the metabolite 9 was found

Compound: COCCCCCCOc1ccc(C2=N[C@@](C)(C(=O)O)CS2)c(O)c1 [compound 10, (S)-4,5-dihydro-2-[2-hydroxy-4-(6-methoxyhexyloxy)phenyl]-4-methyl-4-thiazolecarboxylic acid]
overt toxicity in rats ([9]; bile duct-cannulated rats): profoundly toxic; also recorded: very toxic
time of death of one of the animals post drug ([9]; bile duct-cannulated rats, remaining rodents euthanized at 24 h): ~ 22 h
time of peak drug-induced iron excretion post drug ([9]; rat): 6 h

Compound: C[C@]1(C(=O)O)CSC(c2ccc(OCCCCCCO)cc2O)=N1 [compound 11, (S)-4,5-dihydro-2-[2-hydroxy-4-(6-hydroxyhexyloxy)phenyl]-4-methyl-4-thiazolecarboxylic acid]
overt toxicity in rats ([9]; bile duct-cannulated rats): did not present with any overt toxicity; also recorded: did not display any overt toxicity; also recorded: did not elicit any signs of overt toxicity
concentration in heart [8, 14]: 26 nmol/g wet weight
concentration in kidney ([8]; 0.5 h after 11 sc 300 µmol/kg): trace amounts
presence in liver ([8]; rat liver, any of the time points (0.5-8 h) after 11 sc 300 µmol/kg): not found
concentration in pancreas [8, 15]: < 5 nmol/g wet weight
share of the total (parent + metabolites) [8, 16]: no longer detectable
conversion of alcohol 11 to metabolites 12-14 ([8]; rats, 11 sc 300 µmol/kg): Significant conversion; also recorded: quickly converted; also recorded: very quickly converted
survival (male Sprague-Dawley rats; rat, po by gavage once daily for ten days): survived
histopathology (25 tissues/rat) (male Sprague-Dawley rats; rat, po once daily x 10 d): could not identify any drug-related abnormalities
overall toxicity (male Sprague-Dawley rats; rodents, once daily for 10 days): complete lack of toxicity

presence in cardiac tissue ([8]; rat heart, any of the time points after 11 sc 300 µmol/kg): not found
concentration in kidney ([8]; 0.5 h after 11 sc 300 µmol/kg): found
concentration in kidney ([8]; 1 h after 11 sc 300 µmol/kg): found
presence in liver ([8]; rat liver, 2, 4, or 8 h after 11 sc 300 µmol/kg): not detected
share of the total drug (parent + metabolites) [8, 17]: 11%
share of the total drug (parent + metabolites) [8, 18]: 2%
presence in pancreas ([8]; rat pancreas, any of the time points after 11 sc 300 µmol/kg): not found
presence in plasma ([8]; rat plasma, 0.5-8 h after 11 sc 300 µmol/kg): None
Compound: C[C@]1(C(=O)O)CSC(c2ccc(OCCCCCC(=O)O)cc2O)=N1 [compound 12, (S)-4,5-dihydro-2-[2-hydroxy-4-(5-carboxypentyloxy)phenyl]-4-methyl-4-thiazolecarboxylic acid]

concentration in heart [8, 14]: ~ 46 nmol/g wet weight
concentration in heart [8, 19]: ~ 46 nmol/g wet weight
presence in heart ([8]; rat heart): not found
concentration in kidney ([8]; 0.5 h after 11 sc 300 µmol/kg): ~ 300 nmol/g wet weight
concentration in kidney ([8]; 1 h after 11 sc 300 µmol/kg): ~ 300 nmol/g wet weight
concentration in kidney ([8]; 8 h after 11 sc 300 µmol/kg): not detectable
share of the total drug (parent + metabolites) [8, 17]: 71%
share of the total drug (parent + metabolites) [8, 18]: 73%
share of the total drug (parent + metabolites) ([8]; rat liver, 2 h after 11 sc 300 µmol/kg): 66%
share of the total drug (parent + metabolites) ([8]; rat liver, 4 h after 11 sc 300 µmol/kg): 70%
presence in liver [8, 20]: no 13 remained
concentration in pancreas [8, 15]: 19 nmol/g wet weight
concentration in pancreas [8, 21]: 23 nmol/g wet weight
share of the total (parent + metabolites) ([8]; rat plasma, 0.5 h after 11 sc 300 µmol/kg): 62%
share of the total (parent + metabolites) [8, 16]: 50%
share of the total plasma drug concentration ([8]; rat plasma, 8 h after 11 sc 300 µmol/kg): 65%
Compound: C[C@]1(C(=O)O)CSC(c2ccc(OCCCC(=O)O)cc2O)=N1 [compound 13, (S)-4,5-dihydro-2-[2-hydroxy-4-(3-carboxypropyloxy)phenyl]-4-methyl-4-thiazolecarboxylic acid]
sc ICE vs po ICE in the primates (times higher) [10]: 3.4 times

concentration in heart [8, 14]: 17 nmol/g wet weight
concentration in heart [8, 19]: 23 nmol/g wet weight
presence in heart ([8]; rat heart): not found
concentration in kidney ([8]; 0.5 h after 11 sc 300 µmol/kg): 156 nmol/g wet weight
concentration in kidney ([8]; 1 h after 11 sc 300 µmol/kg): 201 nmol/g wet weight
concentration in kidney ([8]; 2 h after 11 sc 300 µmol/kg): 161 nmol/g wet weight
concentration in kidney ([8]; 8 h after 11 sc 300 µmol/kg): 5 nmol/g wet weight
share of the total drug (parent + metabolites) [8, 17]: 18%
share of the total drug (parent + metabolites) [8, 18]: 25%
presence in liver [8, 20]: trace amounts
concentration in pancreas [8, 15]: Trace amounts
concentration in pancreas [8, 21]: Trace amounts
concentration in pancreas ([8]; rat pancreas, 2 h after 11 sc 300 µmol/kg): Trace amounts
share of the total (parent + metabolites) [8, 16]: 50%
Compound: C[C@]1(C(=O)O)CSC(c2ccc(OCC(=O)O)cc2O)=N1 [compound 14, (S)-4,5-dihydro-2-[2-hydroxy-4-(carboxymethoxy)phenyl]-4-methyl-4-thiazolecarboxylic acid]
sc ICE vs po ICE in the primates (times higher) [10]: 5.3 times
